# Measurements taken from the supplement of paper PMC10307832.
# What was measured:
# [1] = compound: CC1=CC(=CC=C1)NC2=NC(=CS2)C3=CC=NC=C3 + NC(=O)Nc1cc(-c2cccc(F)c2)sc1C(=O)N[C@H]1CCCNC1 [AZD7762] (partner 0.2 µM); test: relative viability (nuclei count vs DMSO), 5 days (fraction); higher = more cells survive
# Summary of the method: (§1)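 Relative viability equals treated-well nuclei counts divided by vehicle-well nuclei counts. Counts came from 4× images of lung cancer cell lines grown in 1536-well plates for 5 days after pin-tool dosing on the day after seeding. Dosing used one drug alone or a fixed anchor-drug dose plus five library-drug doses (not always all listed) in √10 steps, and values are medians of duplicate plates.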
# [2] = compound: CC1=CC(=CC=C1)NC2=NC(=CS2)C3=CC=NC=C3 + O=C(CCCCCCC(=O)Nc1ccccc1)NO [Vorinostat] (partner 1 µM); test: as above
# Summary of the method: as §1
Cell Line,relative viability ([1]; first compound 0.08 µM),relative viability ([1]; first compound 0.253 µM),relative viability ([1]; first compound 0.8 µM),relative viability ([1]; first compound 2.53 µM),relative viability ([1]; first compound 8 µM),relative viability ([2]; first compound 0.08 µM),relative viability ([2]; first compound 0.253 µM),relative viability ([2]; first compound 0.8 µM),relative viability ([2]; first compound 2.53 µM),relative viability ([2]; first compound 8 µM)
NCI-H650,0.766,0.896,1.05,0.926,0.999,0.414,0.429,0.395,0.624,0.599
NCI-H661,–,–,–,–,–,0.764,0.753,0.747,0.718,0.666
NCI-H727,0.669,–,0.745,–,0.507,0.967,–,1.1,–,1.24
NCI-H838,0.812,0.924,0.85,0.928,0.829,0.64,0.599,0.628,0.582,0.524
NCI-H1355,0.657,0.654,0.513,0.653,0.558,0.521,0.458,0.429,0.403,0.469
NCI-H1395,0.401,–,0.393,0.352,0.336,0.618,–,0.804,0.478,0.537
NCI-H1437,1.07,1.11,1.1,1.12,1.11,0.722,0.732,0.611,0.718,0.362
NCI-H1648,0.662,0.568,0.676,0.469,0.469,0.279,0.455,0.548,0.422,0.349
NCI-H1650,–,–,–,–,–,0.587,0.533,0.489,0.51,0.404
NCI-H1651,0.5,0.473,0.416,0.426,0.366,0.562,0.547,0.569,0.464,0.596
NCI-H1666,0.766,0.715,0.607,0.548,0.68,0.622,0.821,0.702,0.79,0.735
NCI-H1703,0.121,0.127,0.14,0.148,0.112,–,–,–,–,–
NCI-H1734,0.559,0.554,0.528,0.647,0.558,0.725,0.77,0.782,0.752,0.681
NCI-H1755,0.491,0.418,0.46,0.486,0.376,0.621,0.761,0.726,0.611,0.605
NCI-H1792,0.459,0.529,0.628,0.755,0.524,–,–,–,–,–
NCI-H1793,0.366,0.487,0.522,0.789,0.407,0.633,0.616,0.771,0.632,0.8
NCI-H1915,0.755,0.665,0.689,0.686,0.667,0.442,0.452,0.477,0.501,0.525
NCI-H1944,0.401,0.552,0.706,0.527,0.47,0.364,0.489,0.529,0.366,0.408
NCI-H1975,0.579,0.532,0.591,0.462,0.439,0.656,0.694,0.593,0.707,0.554
NCI-H1993,0.688,0.706,0.641,0.682,0.749,0.691,0.649,0.726,0.819,0.726

Cell Line,relative viability ([1]; first compound 0.08 µM),relative viability ([1]; first compound 0.253 µM),relative viability ([1]; first compound 0.8 µM),relative viability ([1]; first compound 2.53 µM),relative viability ([1]; first compound 8 µM),relative viability ([2]; first compound 0.08 µM),relative viability ([2]; first compound 0.253 µM),relative viability ([2]; first compound 0.8 µM),relative viability ([2]; first compound 2.53 µM),relative viability ([2]; first compound 8 µM)
NCI-H2009,–,–,–,–,–,0.624,0.664,0.593,0.642,0.7
NCI-H2023,–,–,–,–,–,0.594,0.429,0.689,0.531,0.405
NCI-H2085,0.904,1.01,0.847,0.993,0.575,0.763,0.763,0.693,0.755,0.645
NCI-H2087,1.41,1.29,1.14,1.43,1.17,0.615,0.725,0.762,0.574,0.708
NCI-H2126,0.967,1.09,1.06,0.95,0.981,0.579,0.717,0.711,0.735,0.74
NCI-H2170,0.776,0.829,0.706,0.749,0.521,0.695,0.901,0.731,0.697,0.599
NCI-H2228,–,–,–,–,–,0.343,0.514,0.42,0.412,0.824
NCI-H2342,0.44,0.403,0.505,0.377,0.523,0.749,0.753,0.721,0.716,0.745
NCI-H2347,0.613,0.731,0.699,0.778,0.72,0.512,0.671,0.411,0.657,0.501
NCI-H2405,0.675,0.716,0.667,–,0.664,0.874,0.613,0.892,–,0.839
NCI-H3122,0.946,1.01,1.04,1.04,0.96,0.912,0.709,1.05,1.03,0.961
PC-3 [JPC-3],0.711,–,1.11,0.712,0.663,0.579,–,0.811,0.575,0.803
PC-14,0.254,0.28,0.383,0.247,0.316,0.84,0.674,0.715,0.867,0.666
RERF-LC-KJ,1.09,0.691,0.775,0.222,0.911,0.662,0.541,0.526,0.373,0.279
SK-LU-1,–,–,–,–,–,0.76,0.796,0.53,0.799,0.727
SK-MES-1,–,–,–,–,–,0.851,0.829,0.819,0.86,0.822
SW 900,0.65,0.576,0.745,0.508,0.26,0.433,0.357,0.516,0.33,0.188
SW 1573,–,–,–,–,–,0.739,0.748,0.815,0.727,0.687
UMC-11,–,–,–,–,–,0.356,0.32,0.354,0.34,0.487
